Legend:
[1] = test system: human SHSY5Y neuroblastoma cells; test: Cell viability by MTT and LDH assays; details: 5 hours, up to 1 mM concentration
Procedure: Human SHSY-5Y neuroblastoma cells were cultured in Dulbecco's Modified Eagle's Medium (DMEM) (ThermoFisher Scientific; Waltham, MA) with 10% Fetal Bovine Serum (FBS) (ThermoFisher) and 1% Penicillin-Streptomycin (PenStrep, ThermoFisher) and incubated at 37° C. under atmospheric oxygen concentrations (21%) with 5% CO2. SHSY-5Y cells were cultured in DMEM with Ham's F12 (1:1) (ThermoFisher) with 20% FBS, 1% PenStrep. Cells were plated at a density tailored to reach 70-80% confluence at the beginning of every experiment. SH-SY5Y cells were transiently transfected for 24 hours with human wild-type α-synuclein using Fugene HD transfection reagent (Promega; Madison, WI) before fresh culture media and drug were added.
Cell viability was determined via lactate dehydrogenase assay on culture media, (ThermoFisher) and MTT assay on plated cells (ThermoFisher).

human USP13 = biological target: T1, human USP13 (Homo sapiens, UniProt Q92995); test: USP13 activity via ELISA in SHSY5Y cells; assay type: cell-based; details: for IC50: SHSY5Y cell line, estimated with GraphPad Prism, read-out: IC50 to inhibit USP13 activity; for USP13 activity via ELISA: SHSY5Y cells, 5 hours, concentration range of 1 nM-1 mM
T1 construct: USP13 activity via ELISA in human SHSY5Y neuroblastoma cells; endogenous in cells; host or cells: human SH-SY5Y neuroblastoma cells (transiently transfected with human wild-type alpha-synuclein, not with USP13)
T1 sequence (Q92995 1-863): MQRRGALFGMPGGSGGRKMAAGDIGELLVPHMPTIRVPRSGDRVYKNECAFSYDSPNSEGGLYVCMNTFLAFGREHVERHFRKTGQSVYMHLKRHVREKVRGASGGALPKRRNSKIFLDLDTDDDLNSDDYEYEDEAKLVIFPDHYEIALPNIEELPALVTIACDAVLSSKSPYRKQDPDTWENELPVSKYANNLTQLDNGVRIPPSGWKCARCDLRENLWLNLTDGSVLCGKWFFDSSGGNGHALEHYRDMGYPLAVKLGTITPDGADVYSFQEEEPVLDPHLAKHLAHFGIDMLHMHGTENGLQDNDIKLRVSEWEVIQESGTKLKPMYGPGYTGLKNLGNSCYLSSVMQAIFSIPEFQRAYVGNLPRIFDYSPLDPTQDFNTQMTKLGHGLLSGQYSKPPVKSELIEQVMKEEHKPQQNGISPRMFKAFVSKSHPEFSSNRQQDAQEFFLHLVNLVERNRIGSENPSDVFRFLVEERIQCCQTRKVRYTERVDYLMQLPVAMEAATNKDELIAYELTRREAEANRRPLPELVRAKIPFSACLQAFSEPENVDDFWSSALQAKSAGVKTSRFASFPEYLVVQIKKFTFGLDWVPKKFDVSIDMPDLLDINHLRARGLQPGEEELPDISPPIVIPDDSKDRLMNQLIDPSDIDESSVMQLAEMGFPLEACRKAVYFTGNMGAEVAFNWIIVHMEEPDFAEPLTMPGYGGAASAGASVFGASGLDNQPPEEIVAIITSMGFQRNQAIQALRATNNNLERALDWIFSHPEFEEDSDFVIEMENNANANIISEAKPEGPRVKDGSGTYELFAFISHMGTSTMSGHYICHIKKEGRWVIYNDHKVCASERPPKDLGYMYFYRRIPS
Procedure: (§1) Cell lines, transfection, and treatment.
(§2) A total of 25 μL soluble protein was incubated overnight at 4° C. with 25 μL of a mixed bead solution. After washing, samples were incubated with 25 μL detection antibody solution for 1.5 hours at room temperature. Streptavidin-phycoerythrin (25 μL) was added to each well containing the 25 μL of detection antibody solution. Samples were then washed and suspended in 100 μL of sheath fluid. Samples were then run on MAGPIX with Xponent software. The median fluorescent intensity (MFI) data were analyzed using a 5-parameter logistic or spline curve-fitting method for calculating analyte concentrations in samples. Specific alpha-synuclein ELISAs were performed on tissue soluble extracts from midbrain lysates in 1XSTEN buffer. The ELISA for USP13 (MyBioSource, Cat # MBS9335287), Human alpha-synuclein (Biolegend, Cat #844101) and specific p-Tau ser396 (Invitrogen, KHB7031) were performed on cell or brain tissue extracts as described above according to manufacturers' protocol.
Statistical and Data Analysis. All statistical analyses were performed using GraphPad Prism version 5.0 (GraphPad software, Inc, San Diego, CA, USA). Two-tailed student's t-test was used in comparison of means of two groups. Ordinary one-way analysis of variance (ANOVA) followed by Newman-Keuls or Dunnett comparison post hoc tests were used in comparison of means of multiple groups. Asterisks denote actual p-value significances (*<0.05, **<0.01, ***<0.001 and ****<0.0001), and N is the number of animals or the number of independent experiments (cell culture) per group. Unless otherwise indicated, data are expressed as Mean±SD. IC50 to USP13 levels was also estimated using GraphPad Prism version 5.0 (GraphPad software, Inc, San Diego, CA, USA).

human alpha-synuclein = test: Alpha-synuclein levels via ELISA in alpha-synuclein-transfected SHSY5Y cells; assay type: cell-based; details: 5 hours, concentration between 1 and 0.1 nM
Procedure: as §1
Alpha-Synuclein Enzyme-Linked Immunosorbent Assay (ELISA). ELISAs for total human alpha-synuclein (Millipore; Burlington, MA) were conducted using Milliplexed ELISA. Briefly, Xmap technology uses magnetic microspheres that are internally coded with two fluorescent dyes. Through precise combinations of these two dyes, multiple proteins are simultaneously measured within a sample. Each of these spheres is coated with a specific capture antibody. The capture antibody binds to the detection antibody and a reporter molecule, completing the reaction on the surface of the bead.
as §2

Row | Compound | cell death in two viability assays (MTT and LDH) [1] | IC50 (human USP13) | USP13 activity via ELISA (human USP13) | level of alpha-synuclein via ELISA (human alpha-synuclein)
1 | COC(=O)[C@H](Cc1ccccc1)Nc1c([N+](=O)[O-])c(=O)oc2ccccc12 [CL3-512, (S)-Methyl (3-nitro-2-oxo-2H-chromen-4-yl)-phenylalaninate] | do not cause cell death | 1080 nM | significantly reduce the activity of human USP13 | significantly reduce the level of alpha-synuclein
2 | COC(=O)[C@H](Cc1ccc(O)cc1)Nc1c([N+](=O)[O-])c(=O)oc2ccccc12 [CL3-514, (S)-Methyl (3-nitro-2-oxo-2H-chromen-4-yl)-tyrosinate] | do not cause cell death | 68.9 nM | significantly reduce the activity of human USP13 | significantly reduce the level of alpha-synuclein
3 | Fc1ccc2nccc(NCc3ccccc3)c2c1 [CL3-499, N-Benzyl-6-fluoroquinolin-4-amine] | do not cause cell death | 1190 nM | significantly reduce the activity of human USP13 | significantly reduce the level of alpha-synuclein
4 | Fc1ccc2nccc(Nc3ccccc3)c2c1 [BK50118-B, 6-Fluoro-N-phenylquinolin-4-amine] | do not cause cell death | 36.9 nM | significantly reduce the activity of human USP13 | significantly reduce the level of alpha-synuclein
5 | c1ccc(Nc2ccnc3ccsc23)cc1 [BK50118-A, N-Phenylthieno[3,2-b]pyridin-7-amine] | do not cause cell death | 26 nM | significantly reduce the activity of human USP13 | significantly reduce the level of alpha-synuclein
6 | Fc1ccc(CNc2ncnc3ccc(F)cc23)cc1 [Spautin-1, reference compound] | – | 600 to 700 nM | – | –

— patent US20240092800A1, “USP13 INHIBITORS AND METHODS OF USE THEREOF” (GEORGETOWN UNIVERSITY, priority 2021, published 2024)
